Laboratory results published in patent US11987588B2, “Modulators of the beta-3 adrenergic receptor useful for the treatment or prevention of heart failure and disorders related thereto” (Arena Pharmaceuticals, Inc., priority 2017, dated 2024).

The compounds below were run against Beta-3 Adrenergic Receptor (Homo sapiens (Human), UniProt P13945) (assay: Homogeneous Time-Resolved Fluorescence (HTRF) cAMP antagonist assay, IC50 determination). Settings: CHO-K1 cells stably expressing recombinant receptor, isoproterenol at EC90.
Sequence of Beta-3 Adrenergic Receptor (P13945 whole entry, species assumed): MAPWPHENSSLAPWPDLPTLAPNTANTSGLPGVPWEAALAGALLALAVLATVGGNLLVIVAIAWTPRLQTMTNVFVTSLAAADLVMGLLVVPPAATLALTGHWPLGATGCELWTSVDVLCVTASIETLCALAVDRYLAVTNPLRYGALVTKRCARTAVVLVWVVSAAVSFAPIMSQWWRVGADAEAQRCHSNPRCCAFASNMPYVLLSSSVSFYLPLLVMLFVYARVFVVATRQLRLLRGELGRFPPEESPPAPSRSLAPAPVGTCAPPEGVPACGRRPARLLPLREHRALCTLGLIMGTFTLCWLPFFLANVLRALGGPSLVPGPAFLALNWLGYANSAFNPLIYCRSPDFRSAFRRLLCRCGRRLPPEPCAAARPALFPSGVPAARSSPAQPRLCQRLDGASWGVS
Format: cell-based
How it was run: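 CHO-K1 cells stably expressing receptor, 1500 cells/well, preincubated briefly with 10-point 5-fold compound series (top final typically 10 or 100 μM) in PBS with 1 mM IBMX, then challenged with isoproterenol at EC90 for 1 h at room temperature. cAMP read by HTRF against on-plate standard curve; IC50 from dose-response.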

IC50	SMILES
38.4 nM	CNS(=O)(=O)c1cccc(OC[C@@H](O)CNC2COC3(CCN(S(=O)(=O)c4cc(F)ccc4OC)CC3)C2)c1 (stereo partly drawn) [Compound 238, 3-((2S)-3-(8-(5-fluoro-2-methoxyphenylsulfonyl)-1-oxa-8-azaspiro[4.5]decan-3-ylamino)-2-hydroxypropoxy)-N-methylbenzenesulfonamide]
24.8 nM	CNS(=O)(=O)c1cccc(OC[C@@H](O)CNC2COC3(CCN(S(=O)(=O)c4ccc5ncccc5c4)CC3)C2)c1 (stereo partly drawn) [Compound 323, 3-((2S)-2-hydroxy-3-(8-(quinolin-6-ylsulfonyl)-1-oxa-8-azaspiro[4.5]decan-3-ylamino)propoxy)-N-methylbenzenesulfonamide]
56.2 nM	CNS(=O)(=O)c1cccc(OC[C@@H](O)CN[C@H]2COC3(CCN(S(=O)(=O)c4cccc(-c5ccc(CC#N)cc5)c4)CC3)C2)c1 [Compound 294, 3-((S)-3-((R)-8-(4′-(cyanomethyl)biphenyl-3-ylsulfonyl)-1-oxa-8-azaspiro[4.5]decan-3-ylamino)-2-hydroxypropoxy)-N-methylbenzenesulfonamide]
54.2 nM	CNS(=O)(=O)c1cccc(OC[C@@H](O)CN[C@H]2COC3(CCN(S(=O)(=O)c4cnc5cc(C)ccc5c4O)CC3)C2)c1 [Compound 538, 3-((S)-2-hydroxy-3-((R)-8-(4-hydroxy-7-methylquinolin-3-ylsulfonyl)-1-oxa-8-azaspiro[4.5]decan-3-ylamino)propoxy)-N-methylbenzenesulfonamide]
51.3 nM	CNS(=O)(=O)c1cccc(OC[C@@H](O)CNC2COC3(CCN(S(=O)(=O)c4ccccc4OC)CC3)C2)c1 (stereo partly drawn) [Compound 398, 3-((2S)-2-hydroxy-3-(8-(2-methoxyphenylsulfonyl)-1-oxa-8-azaspiro[4.5]decan-3-ylamino)propoxy)-N-methylbenzenesulfonamide]
38.6 nM	CN(C)S(=O)(=O)c1cccc(OC[C@@H](O)CNC2COC3(CCN(S(=O)(=O)c4cccc(Cl)c4)CC3)C2)c1 (stereo partly drawn) [Compound 246, 3-((2S)-3-(8-(3-chlorophenylsulfonyl)-1-oxa-8-azaspiro[4.5]decan-3-ylamino)-2-hydroxypropoxy)-N,N-dimethylbenzenesulfonamide]
48.5 nM	NS(=O)(=O)c1cccc(OC[C@@H](O)CN[C@H]2COC3(CCN(S(=O)(=O)c4ccc5c(c4)CCCC5)CC3)C2)c1 [Compound 556, 3-((S)-2-hydroxy-3-((R)-8-(5,6,7,8-tetrahydronaphthalen-2-ylsulfonyl)-1-oxa-8-azaspiro[4.5]decan-3-ylamino)propoxy)benzenesulfonamide]
22.1 nM	CNS(=O)(=O)c1cccc(OC[C@@H](O)CNC2COC3(CCN(S(=O)(=O)c4cccc(-c5sc(C)nc5C)c4)CC3)C2)c1 (stereo partly drawn) [Compound 73, 3-((2S)-3-(8-(3-(2,4-dimethylthiazol-5-yl)phenylsulfonyl)-1-oxa-8-azaspiro[4.5]decan-3-ylamino)-2-hydroxypropoxy)-N-methylbenzenesulfonamide]
9.02 nM	CCN1CCOc2ccc(S(=O)(=O)N3CCC4(CC3)CC(NC[C@H](O)COc3cccc(S(=O)(=O)NC)c3)CO4)cc21 (stereo partly drawn) [Compound 333, 3-((2S)-3-(8-(4-ethyl-3,4-dihydro-2H-benzo[b][1,4]oxazin-6-ylsulfonyl)-1-oxa-8-azaspiro[4.5]decan-3-ylamino)-2-hydroxypropoxy)-N-methylbenzenesulfonamide]
57.7 nM	CNS(=O)(=O)c1cccc(OC[C@@H](O)CN[C@@H]2COC3(CCN(S(=O)(=O)c4cccc(-c5cnn(C)c5)c4)CC3)C2)c1 [Compound 216, 3-((S)-2-hydroxy-3-((S)-8-(3-(1-methyl-1H-pyrazol-4-yl)phenylsulfonyl)-1-oxa-8-azaspiro[4.5]decan-3-ylamino)propoxy)-N-methylbenzenesulfonamide]
202 nM	CNS(=O)(=O)c1cccc(OC[C@@H](O)CN[C@H]2COC3(CCN(c4cnc(C(F)(F)F)cn4)CC3)C2)c1 [Compound 585, 3-((S)-2-hydroxy-3-((R)-8-(5-(trifluoromethyl)pyrazin-2-yl)-1-oxa-8-azaspiro[4.5]decan-3-ylamino)propoxy)-N-methylbenzenesulfonamide]
20.8 nM	CNS(=O)(=O)c1cccc(OC[C@@H](O)CN[C@H]2COC3(CCN(S(=O)(=O)c4cnc5ccc(F)cc5c4O)CC3)C2)c1 [Compound 534, 3-((S)-3-((R)-8-(6-fluoro-4-hydroxyquinolin-3-ylsulfonyl)-1-oxa-8-azaspiro[4.5]decan-3-ylamino)-2-hydroxypropoxy)-N-methylbenzenesulfonamide]
13.2 nM	CNS(=O)(=O)c1cccc(OC[C@@H](O)CNC2COC3(CCN(S(=O)(=O)c4ccc(C(C)(C)C)cc4)CC3)C2)c1 (stereo partly drawn) [Compound 36, 3-((2S)-3-(8-(4-tert-butylphenylsulfonyl)-1-oxa-8-azaspiro[4.5]decan-3-ylamino)-2-hydroxypropoxy)-N-methylbenzenesulfonamide]
71.1 nM	CC(C)CCNS(=O)(=O)c1cccc(OC[C@@H](O)CNC2COC3(CCN(S(=O)(=O)c4ccc5ccccc5c4)CC3)C2)c1 (stereo partly drawn) [Compound 98, 3-((2S)-2-hydroxy-3-(8-(naphthalen-2-ylsulfonyl)-1-oxa-8-azaspiro[4.5]decan-3-ylamino)propoxy)-N-isopentylbenzenesulfonamide]
21.6 nM	CCn1cc(S(=O)(=O)N2CCC3(CC2)C[C@@H](NC[C@H](O)COc2cccc(S(=O)(=O)NC)c2)CO3)c(=O)c2cccc(F)c21 [Compound 525, 3-((S)-3-((R)-8-(1-ethyl-8-fluoro-4-oxo-1,4-dihydroquinolin-3-ylsulfonyl)-1-oxa-8-azaspiro[4.5]decan-3-ylamino)-2-hydroxypropoxy)-N-methylbenzenesulfonamide]
39.3 nM	CNS(=O)(=O)c1cccc(OC[C@@H](O)CNC2COC3(CCN(S(=O)(=O)c4ccc(C)c(Br)c4)CC3)C2)c1 (stereo partly drawn) [Compound 218, 3-((2S)-3-(8-(3-bromo-4-methylphenylsulfonyl)-1-oxa-8-azaspiro[4.5]decan-3-ylamino)-2-hydroxypropoxy)-N-methylbenzenesulfonamide]
59.2 nM	CNS(=O)(=O)c1cccc(OC[C@@H](O)CN[C@H]2COC3(CCN(S(=O)(=O)c4cnc5c(c4)N(C)CC(C)(C)O5)CC3)C2)c1 [Compound 473, 3-((S)-2-hydroxy-3-((R)-8-(1,3,3-trimethyl-2,3-dihydro-1H-pyrido[2,3-b][1,4]oxazin-7-ylsulfonyl)-1-oxa-8-azaspiro[4.5]decan-3-ylamino)propoxy)-N-methylbenzenesulfonamide]
9.09 nM	CNS(=O)(=O)c1cccc(OC[C@@H](O)CNC2COC3(CCN(S(=O)(=O)c4cccc(-c5cc[nH]n5)c4)CC3)C2)c1 (stereo partly drawn) [Compound 84, 3-((2S)-3-(8-(3-(1H-pyrazol-3-yl)phenylsulfonyl)-1-oxa-8-azaspiro[4.5]decan-3-ylamino)-2-hydroxypropoxy)-N-methylbenzenesulfonamide]
311 nM	CCN1CCC(NS(=O)(=O)c2cccc(OC[C@@H](O)CNC3COC4(CCN(S(=O)(=O)c5ccc6ccccc6c5)CC4)C3)c2)CC1 (stereo partly drawn) [Compound 165, N-(1-ethylpiperidin-4-yl)-3-((2S)-2-hydroxy-3-(8-(naphthalen-2-ylsulfonyl)-1-oxa-8-azaspiro[4.5]decan-3-ylamino)propoxy)benzenesulfonamide]
105 nM	CNS(=O)(=O)c1cccc(OC[C@@H](O)CNC2COC3(CCN(S(=O)(=O)c4ccc5c(c4)CC(=O)N5)CC3)C2)c1 (stereo partly drawn) [Compound 182, 3-((2S)-2-hydroxy-3-(8-(2-oxoindolin-5-ylsulfonyl)-1-oxa-8-azaspiro[4.5]decan-3-ylamino)propoxy)-N-methylbenzenesulfonamide]
16.6 nM	CNS(=O)(=O)c1cccc(OC[C@@H](O)CNC2COC3(CCN(S(=O)(=O)c4cccc(C#N)c4)CC3)C2)c1 (stereo partly drawn) [Compound 32, 3-((2S)-3-(8-(3-cyanophenylsulfonyl)-1-oxa-8-azaspiro[4.5]decan-3-ylamino)-2-hydroxypropoxy)-N-methylbenzenesulfonamide]
17.5 nM	CNS(=O)(=O)c1cccc(OC[C@@H](O)CNC2COC3(CCN(S(=O)(=O)c4cccc(-c5cnn(Cc6ccccc6)c5)c4)CC3)C2)c1 (stereo partly drawn) [Compound 77, 3-((2S)-3-(8-(3-(1-benzyl-1H-pyrazol-4-yl)phenylsulfonyl)-1-oxa-8-azaspiro[4.5]decan-3-ylamino)-2-hydroxypropoxy)-N-methylbenzenesulfonamide]
18 nM	CNS(=O)(=O)c1cccc(OC[C@@H](O)CNC2COC3(CCN(S(=O)(=O)c4cc(S(=O)(=O)c5ccccc5)cs4)CC3)C2)c1 (stereo partly drawn) [Compound 190, 3-((2S)-2-hydroxy-3-(8-(4-(phenylsulfonyl)thiophen-2-ylsulfonyl)-1-oxa-8-azaspiro[4.5]decan-3-ylamino)propoxy)-N-methylbenzenesulfonamide]
84.7 nM	CNS(=O)(=O)c1cccc(OC[C@@H](O)CNC2COC3(CCN(S(=O)(=O)c4cn[nH]c4)CC3)C2)c1 (stereo partly drawn) [Compound 131, 3-((2S)-3-(8-(1H-pyrazol-4-ylsulfonyl)-1-oxa-8-azaspiro[4.5]decan-3-ylamino)-2-hydroxypropoxy)-N-methylbenzenesulfonamide]
175 nM	CN(C)S(=O)(=O)c1cccc(OC[C@@H](O)CNC2COC3(CCN(S(=O)(=O)c4ccc(CN)cc4)CC3)C2)c1 (stereo partly drawn) [Compound 290, 3-((2S)-3-(8-(4-(aminomethyl)phenylsulfonyl)-1-oxa-8-azaspiro[4.5]decan-3-ylamino)-2-hydroxypropoxy)-N,N-dimethylbenzenesulfonamide]
98 nM	CNS(=O)(=O)c1cccc(OC[C@@H](O)CN[C@@H]2COC3(CCN(S(=O)(=O)c4cnn(-c5ccccc5)c4C)CC3)C2)c1 [Compound 280, 3-((S)-2-hydroxy-3-((S)-8-(5-methyl-1-phenyl-1H-pyrazol-4-ylsulfonyl)-1-oxa-8-azaspiro[4.5]decan-3-ylamino)propoxy)-N-methylbenzenesulfonamide]
